Converted amounts (≈) assume the structure as drawn. Counter-ions that a name gives are not always drawn.
Tests used:
Format in all cases: physicochemical
Solid-state stability = settings: for Solid state stability (degradation): 2 months at 33° C., 87600 min; for Solid-state stability (visual observation): 75% R.H., 30°, same = as at day 0
Description: (§1) The solid-state stability studies were performed as follows. Approximately 10-15 mg of the free acid or a salt was placed in either clear glass vials or amber vials wrapped in aluminum foil and stored under various conditions as listed below:
(a) Refrigerated at about 4° C. (dark).
(b) High Intensity Light Box at about 33° C. and relative humidity <15%. (Light Box contained 6-15 watt fluorescent bulbs 41/2 inches above the powder surface.) Sample vials were placed on their sides with powder spread evenly on the vial wall.
(c) 30° C./75% relative humidity/dark-vials were capped loosely.
(§2) At various times, 1-1.5 mg samples were dissolved in methanol, diluted to a prescribed volume with water, and analyzed by high pressure liquid chromatography versus reference standard of the free acid stored at -20° C. Chromatographic conditions were similar to those described previously.

[1] = Specific gravity (volume displacement, pycnometer); settings: 20° C., acetonitrile
Description: To obtain specific gravity data approximate densities were obtained using a volume displacement procedure. To a 5 ml weighed pycnometer was added 200-300 mg of salt and acetonitrile added to fill. The salt suspensions were sonicated to remove entrapped air and equilibrated to 20° C. in a water bath. The salt densities were estimated by standard methods of calculation.

Water solubility = settings: for Water solubility: in words
[2] = Characterizability (passes profile; moisture content after air equilibration); settings: for Characterizability (passes profile): Table I
[3] = Trichlorotrifluoroethane solubility
Description: The solubility of the compounds in trichlorotrifluoroethane, a high molecular weight fluorochlorinated alkane liquid propellant, was determined as follows. Suspensions of each compound were prepared at concentrations of ~1 mg/ml in trichlorotrifluoroethane in 30 ml glass vials sealed using polytetrafluoroethylene lined caps. These vials were wrapped with aluminum foil and shaken at ~25° C. After 26 days shaking the samples were filtered. Three successive 5 ml fractions were collected from the filter and analyzed to test for adsorption. (No adsorption was observed.)
The 5 ml samples were transferred to 5 ml volumetric flasks and solvent was evaporated under nitrogen. The residue was redissolved in 1 ml methanol and diluted to 5 ml with 30% CH3 CN. Samples were assayed by high pressure liquid chromatography.

[4] = Stability suspended in trichlorotrifluoroethane; settings: dark, 30°
Description: as §1
(d) Suspended in […] and shaken continuously for 26 days.
as §2

CCCCC[C@H](O)/C=C/[C@@H]1c2cc(CCCCC(=O)O)n(-c3ccccc3)c2C[C@H]1O [Sodium Salt, 6,9-Deepoxy-6,9-(phenylimino)-Δ6,8-prostaglandin I1, sodium salt]
Solid state stability (degradation) (Solid-state stability; sodium salt): > 50%
Solid-state stability (Solid-state stability; Dark, 4°, 0 days, sodium salt): 101% of Theory
Solid-state stability (Solid-state stability; Dark, 33°, 0 days, sodium salt): 101% of Theory
Solid-state stability (Solid-state stability; Dark, 33°, 19 days, sodium salt, 27360 min): 61% of Theory
Solid-state stability (visual observation) (Solid-state stability; Dark, 19 days, sodium salt): same
Solid-state stability (Solid-state stability; High intensity light, 33°, relative humidity <15%, 0 days, sodium salt): 101% of Theory
Solid-state stability (Solid-state stability; High intensity light, 33°, relative humidity <15%, 19 days, sodium salt, 27360 min): 3% of Theory
remaining at 456 h (Solid-state stability; solid state, Dark, 4°, 19 days): 87%
remaining at 1104 h (Solid-state stability; solid state, Dark, 4°, 46 days): 77%
Specific gravity ([1]; sodium salt): 1.18
Water solubility (Water solubility; sodium salt): Soluble
Characterizability (passes profile) ([2]; sodium salt): Initial analysis acceptable but later assays (HPLC) unacceptable
moisture content after air equilibration ([2]; sodium salt): .82 % H2O

CCCCC[C@H](O)/C=C/[C@@H]1c2cc(CCCCC(=O)O)n(-c3ccccc3)c2C[C@H]1O [Potassium Salt, 6,9-Deepoxy-6,9-(phenylimino)-Δ6,8-prostaglandin I1, potassium salt]
Solid state stability (degradation) (Solid-state stability; potassium salt): < 2%
Solid-state stability (Solid-state stability; Dark, 4°, 0 days, potassium salt): 100% of Theory
Solid-state stability (Solid-state stability; Dark, 33°, 0 days, potassium salt): 100% of Theory
Solid-state stability (Solid-state stability; Dark, 33°, 19 days, potassium salt, 27360 min): 100% of Theory
Solid-state stability (Solid-state stability; Dark, 33°, 40 days, potassium salt, 57600 min): 100% of Theory
Solid-state stability (Solid-state stability; Dark, 33°, 66 days, potassium salt, 95040 min): 100% of Theory
Solid-state stability (Solid-state stability; Dark, 33°, 289 days, potassium salt, 416160 min): 96% of Theory
Solid-state stability (Solid-state stability; Dark, 33°, 405 days, potassium salt, 583200 min): 96% of Theory
Solid-state stability (visual observation) (Solid-state stability; Dark, 19 days, potassium salt): glass
Solid-state stability (Solid-state stability; High intensity light, 33°, relative humidity <15%, 0 days, potassium salt): 100% of Theory
Solid-state stability (Solid-state stability; High intensity light, 33°, relative humidity <15%, 19 days, potassium salt, 27360 min): 48% of Theory
Solid-state stability (Solid-state stability; in words, over the free acid or the sodium salt): improved solid-state stability over the free acid or the sodium salt
Rank order of stability (Solid-state stability; protected from light, 33°): potassium salt>free acid>sodium salt
remaining at 1584 h (Solid-state stability; solid state, Dark, 4°, 66 days): 102%
remaining at 4536 h (Solid-state stability; solid state, Dark, 4°, 189 days): 101%
remaining at 2400 h (Solid-state stability; solid state, Dark, 33°, 100 days): 97%
remaining at 5184 h (Solid-state stability; solid state, Dark, 33°, 216 days): 98%
Specific gravity ([1]; potassium salt): 1.20
Solubility in fluorinated and fluorochlorinated liquified propellants ([3]; as compared to the free acid, in words): low solubility in fluorinated and fluorochlorinated liquified propellants
Trichlorotrifluoroethane solubility ([3]; ~25° C., 26 days shaking, potassium salt, 37440 min): 0.43 µg/mL
Stability in trichlorotrifluoroethane suspension ([4]; 26 days, potassium salt, 37440 min): 100% of Theory
Water solubility (Water solubility; listed as potassium salt, potassium salt): high water solubility
Water solubility (Water solubility; potassium salt): Soluble
Characterizability (passes profile) ([2]; potassium salt): Pass
moisture content after air equilibration ([2]; potassium salt): .42 % H2O

CCCCC[C@H](O)/C=C/[C@@H]1c2cc(CCCCC(=O)O)n(-c3ccccc3)c2C[C@H]1O [Free Acid, 6,9-deepoxy-6,9-(phenylimino)-Δ6,8-prostaglandin I1, reference compound]
Solid state stability (degradation) (Solid-state stability): > 10%
Solid-state stability (Solid-state stability; Dark, 33°, 0 days): 100% of Theory
Solid-state stability (Solid-state stability; Dark, 33°, 19 days, 27360 min): 98% of Theory
Solid-state stability (Solid-state stability; Dark, 33°, 189 days, 272160 min): 65% of Theory
Solid-state stability (Solid-state stability; Dark, 33°, 289 days, 416160 min): 46% of Theory
Solid-state stability (Solid-state stability; Dark, 33°, 405 days, 583200 min): 19% of Theory
Solid-state stability (visual observation) (Solid-state stability; Dark, 19 days): same
Solid-state stability (Solid-state stability; High intensity light, 33°, relative humidity <15%, 0 days): 100% of Theory
Solid-state stability (Solid-state stability; High intensity light, 33°, relative humidity <15%, 19 days, 27360 min): 55% of Theory
remaining at 960 h (Solid-state stability; solid state, Dark, 33°, 40 days): 94%
remaining at 1584 h (Solid-state stability; solid state, Dark, 33°, 66 days): 89%
solubility at 624 h ([3]; trichlorotrifluoroethane, organic solvent or mixture, ~25° C., 26 days shaking): 0.38 µg/mL (≈ 0.893 µM)
Stability in trichlorotrifluoroethane suspension ([4]; 0 days): 100% of Theory
remaining at 624 h ([4]; trichlorotrifluoroethane, 26 days, read-out: Stability in trichlorotrifluoroethane suspension): 94%
solubility (Water solubility; water, Table I, numeric): 1 µg/mL (≈ 2.35 µM)
Characterizability (passes profile) [2]: Pass
